US9758485B2, “Compounds for controlling arthropods” (priority 2013, dated 2017)

Tested on: not listed separately
Assay: logP determination by HPLC on a reversed-phase column (C18), EEC Directive 79/831 Annex V.A8
Format: physicochemical
Settings: HPLC-MS, reversed-phase column (C18)

| SMILES | log P |
| --- | --- |
| Cc1cc(C(F)(C(F)(F)F)C(F)(F)F)cc(C)c1-n1cc(-c2cnc(Cl)c(C(=O)N(C)C3(C#N)CC3)c2)cn1 [I-T3-103] | 4.3 |
| CCc1cc(C(F)(C(F)(F)F)C(F)(F)F)ccc1-n1cc(-c2cnc(Cl)c(C(=O)NC3(C#N)CC3)c2)cn1 [I-T3-105] | 4.1 |
| Cc1cc(C(F)(C(F)(F)F)C(F)(F)F)cc(C(F)(F)F)c1-n1cc(-c2cnc(Cl)c(C(=O)N(C)C3CC3)c2)cn1 [I-T3-107] | 4.5 |
| Cc1cc(C(F)(C(F)(F)F)C(F)(F)F)cc(C(F)(F)F)c1-n1cc(-c2cnc(Cl)c(C(=O)N(C)C3(C#N)CC3)c2)cn1 [I-T3-111] | 4.4 |

Tested on: Rhipicephalus sanguineus
Assay: Rhipicephalus sanguineus - in vitro contact tests with adult brown dog ticks
Format: in vivo
Settings: application rate 0.2 μg/cm^2, after 48 h (dead or moribund)
Procedure: Rhipicephalus sanguineus—In Vitro Contact Tests with Adult Brown Dog Ticks
(§1) For the coating of the test tubes, 9 mg of active ingredient are first dissolved in 1 ml of acetone p.a. and then diluted to the desired concentration with acetone p.a. 250 μl of the solution are distributed homogeneously on the inner walls and base of a 25 ml test tube by turning and rocking on an orbital shaker (rocking rotation at 30 rpm for 2 h). With 900 ppm active ingredient solution and internal surface 44.7 cm^2, given homogeneous distribution, an area-based dose of 5 μg/cm^2 is achieved.
After the solvent has evaporated off, the tubes are populated with 5-10 adult dog ticks (Rhipicephalus sanguineus), sealed with a perforated plastic lid and incubated in a horizontal position in the dark at room temperature and ambient humidity. After 48 h, efficacy is determined. To this end, the ticks are knocked to the floor of the tube and incubated on a hotplate at 45-50° C. for not more than 5 min. Ticks which remain motionless on the floor or move in such an uncoordinated manner that they are unable to deliberately avoid the heat by climbing upwards are considered to be dead or moribund.
An efficacy of 100% means that all the ticks were dead or moribund. 0% efficacy means that none of the ticks had been harmed.

| SMILES | efficacy |
| --- | --- |
| CCc1cc(C(F)(C(F)(F)F)C(F)(F)F)ccc1-n1cc(-c2cnc(Cl)c(C(=O)NC3(C#N)CC3)c2)cn1 [I-T3-105] | 100% |

Tested on: Ctenocephalides felis
Assay: Ctenocephalides felis - in vitro contact tests with adult cat fleas
Format: in vivo
Settings: application rate 5 μg/cm^2 (=500 g/ha), after 48 h (dead or moribund)
Procedure: Ctenocephalides felis—In Vitro Contact Tests with Adult Cat Fleas
as §1, with “surface area” for “surface”
After the solvent has evaporated off, the tubes are populated with 5-10 adult cat fleas (Ctenocephalides felis), sealed with a perforated plastic lid and incubated in a horizontal position at room temperature and ambient humidity. After 48 h, efficacy is determined. To this end, the test tubes are stood upright and the fleas are knocked to the base of the tube. Fleas which remain motionless at the base or move in an uncoordinated manner are considered to be dead or moribund.
100% efficacy means that all the fleas were dead or moribund. 0% efficacy means that no fleas were harmed.

| SMILES | efficacy |
| --- | --- |
| Cc1cc(C(F)(C(F)(F)F)C(F)(F)F)cc(C)c1-n1cc(-c2cnc(Cl)c(C(=O)N(C)C3(C#N)CC3)c2)cn1 [I-T3-103] | 100% |
| Cc1cc(C(F)(C(F)(F)F)C(F)(F)F)cc(C(F)(F)F)c1-n1cc(-c2cnc(Cl)c(C(=O)N(C)C3CC3)c2)cn1 [I-T3-107] | 100% |
| Cc1cc(C(F)(C(F)(F)F)C(F)(F)F)cc(C(F)(F)F)c1-n1cc(-c2cnc(Cl)c(C(=O)N(C)C3(C#N)CC3)c2)cn1 [I-T3-111] | 100% |

Tested on: Amblyomma hebraeum
Assay: Amblyomma hebraeum test (tick nymphs, immersion)
Format: in vivo
Settings: application rate 100 ppm; tick nymphs immersed for one minute; kill after 42 days
Procedure: (§2) Solvent: dimethyl sulphoxide
To produce an appropriate active ingredient formulation, 10 mg of active ingredient are mixed with 0.5 ml of dimethyl sulphoxide, and the concentrate is diluted with water to the desired concentration.
Tick nymphs (Amblyomma hebraeum) are placed into perforated plastic beakers and immersed in the desired concentration for one minute. The ticks are transferred on filter paper into a Petri dish and stored in a climate-controlled cabinet.
After 42 days, the kill in % is determined. 100% means that all of the ticks have been killed; 0% means that none of the ticks have been killed.

| SMILES | efficacy |
| --- | --- |
| Cc1cc(C(F)(C(F)(F)F)C(F)(F)F)cc(C)c1-n1cc(-c2cnc(Cl)c(C(=O)N(C)C3(C#N)CC3)c2)cn1 [I-T3-103] | 90% |
| CCc1cc(C(F)(C(F)(F)F)C(F)(F)F)ccc1-n1cc(-c2cnc(Cl)c(C(=O)NC3(C#N)CC3)c2)cn1 [I-T3-105] | 85% |
| Cc1cc(C(F)(C(F)(F)F)C(F)(F)F)cc(C(F)(F)F)c1-n1cc(-c2cnc(Cl)c(C(=O)N(C)C3CC3)c2)cn1 [I-T3-107] | 100% |
| Cc1cc(C(F)(C(F)(F)F)C(F)(F)F)cc(C(F)(F)F)c1-n1cc(-c2cnc(Cl)c(C(=O)N(C)C3(C#N)CC3)c2)cn1 [I-T3-111] | 80% |

Tested on: Boophilus microplus
Assay: Boophilus microplus - injection test
Format: in vivo
Settings: application rate 20 μg/animal; injected into engorged adult female ticks; laying of fertile eggs, after 7 days
Summary of the method: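 Compound dissolved in DMSO (10 mg per 0.5 ml, then diluted with DMSO to test concentration); 1 μl injected into the abdomen of 5 engorged adult female ticks, which are then held in a climate-controlled room. Efficacy judged after 7 days by laying of fertile eggs.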

| SMILES | efficacy |
| --- | --- |
| Cc1cc(C(F)(C(F)(F)F)C(F)(F)F)cc(C)c1-n1cc(-c2cnc(Cl)c(C(=O)N(C)C3(C#N)CC3)c2)cn1 [I-T3-103] | 100% |
| CCc1cc(C(F)(C(F)(F)F)C(F)(F)F)ccc1-n1cc(-c2cnc(Cl)c(C(=O)NC3(C#N)CC3)c2)cn1 [I-T3-105] | 100% |
| Cc1cc(C(F)(C(F)(F)F)C(F)(F)F)cc(C(F)(F)F)c1-n1cc(-c2cnc(Cl)c(C(=O)N(C)C3CC3)c2)cn1 [I-T3-107] | 100% |
| Cc1cc(C(F)(C(F)(F)F)C(F)(F)F)cc(C(F)(F)F)c1-n1cc(-c2cnc(Cl)c(C(=O)N(C)C3(C#N)CC3)c2)cn1 [I-T3-111] | 100% |

Tested on: Boophilus microplus Parkhurst strain, SP-resistant
Assay: Boophilus microplus - dip test
Format: in vivo
Settings: application rate 100 ppm; dip of engorged adult female ticks; laying of fertile eggs, after 7 days
Procedure: Boophilus microplus—Dip Test
Test animals: cattle ticks (Boophilus microplus) Parkhurst strain, SP-resistant
as §2
10 mg of active ingredient are dissolved in 0.5 ml of dimethyl sulphoxide. For the purpose of producing a suitable formulation, the active ingredient solution is diluted with water to the concentration desired in each case.
This active ingredient formulation is pipetted into tubes. 8-10 adult engorged female cattle ticks (Boophilus microplus) are transferred into a further tube with holes. The tube is immersed into the active ingredient formulation, and all the ticks are completely wetted. After the liquid has run out, the ticks are transferred on filter discs into plastic dishes and stored in a climate-controlled room.
Efficacy is assessed after 7 days by laying of fertile eggs. Eggs which are not visibly fertile are stored in a climate-controlled cabinet until the larvae hatch after about 42 days. An efficacy of 100% means that none of the ticks has laid any fertile eggs; 0% means that all the eggs are fertile.

| SMILES | efficacy |
| --- | --- |
| Cc1cc(C(F)(C(F)(F)F)C(F)(F)F)cc(C)c1-n1cc(-c2cnc(Cl)c(C(=O)N(C)C3(C#N)CC3)c2)cn1 [I-T3-103] | 100% |
| Cc1cc(C(F)(C(F)(F)F)C(F)(F)F)cc(C(F)(F)F)c1-n1cc(-c2cnc(Cl)c(C(=O)N(C)C3CC3)c2)cn1 [I-T3-107] | 100% |
| Cc1cc(C(F)(C(F)(F)F)C(F)(F)F)cc(C(F)(F)F)c1-n1cc(-c2cnc(Cl)c(C(=O)N(C)C3(C#N)CC3)c2)cn1 [I-T3-111] | 98% |

Tested on: Ctenocephalides felis
Assay: Ctenocephalides felis - oral test
Format: in vivo
Settings: application rate 100 ppm in citrated cattle blood; adult fleas; kill after 2 days
Summary of the method: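 Oral exposure of unfed adult fleas, roughly 20 per chamber, to compound-spiked citrated cattle blood taken up across a parafilm membrane. Read-out is percent kill at 2 days, where 100% means every flea dead.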

| SMILES | efficacy |
| --- | --- |
| Cc1cc(C(F)(C(F)(F)F)C(F)(F)F)cc(C)c1-n1cc(-c2cnc(Cl)c(C(=O)N(C)C3(C#N)CC3)c2)cn1 [I-T3-103] | 100% |
| CCc1cc(C(F)(C(F)(F)F)C(F)(F)F)ccc1-n1cc(-c2cnc(Cl)c(C(=O)NC3(C#N)CC3)c2)cn1 [I-T3-105] | 100% |
| Cc1cc(C(F)(C(F)(F)F)C(F)(F)F)cc(C(F)(F)F)c1-n1cc(-c2cnc(Cl)c(C(=O)N(C)C3CC3)c2)cn1 [I-T3-107] | 100% |
| Cc1cc(C(F)(C(F)(F)F)C(F)(F)F)cc(C(F)(F)F)c1-n1cc(-c2cnc(Cl)c(C(=O)N(C)C3(C#N)CC3)c2)cn1 [I-T3-111] | 100% |

Tested on: Lucilia cuprina
Assay: Lucilia cuprina test
Format: in vivo
Settings: application rate 100 ppm; L1 larvae in minced horsemeat; kill after 2 days
Summary of the method: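 About 20 L1 larvae placed on minced horsemeat treated with compound, formulated in DMSO and diluted with water to test concentration. Kill in % scored after 2 days (100% = all larvae dead, 0% = none).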

| SMILES | efficacy |
| --- | --- |
| Cc1cc(C(F)(C(F)(F)F)C(F)(F)F)cc(C)c1-n1cc(-c2cnc(Cl)c(C(=O)N(C)C3(C#N)CC3)c2)cn1 [I-T3-103] | 100% |
| CCc1cc(C(F)(C(F)(F)F)C(F)(F)F)ccc1-n1cc(-c2cnc(Cl)c(C(=O)NC3(C#N)CC3)c2)cn1 [I-T3-105] | 100% |
| Cc1cc(C(F)(C(F)(F)F)C(F)(F)F)cc(C(F)(F)F)c1-n1cc(-c2cnc(Cl)c(C(=O)N(C)C3CC3)c2)cn1 [I-T3-107] | 100% |
| Cc1cc(C(F)(C(F)(F)F)C(F)(F)F)cc(C(F)(F)F)c1-n1cc(-c2cnc(Cl)c(C(=O)N(C)C3(C#N)CC3)c2)cn1 [I-T3-111] | 100% |

Tested on: Musca domestica
Assay: Musca domestica test
Format: in vivo
Settings: application rate 100 ppm; adult houseflies; kill after 2 days
Summary of the method: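 Feeding exposure: adult Musca domestica, 10 per vessel, given a sponge with sugar solution and test formulation at the desired concentration; % mortality determined on day 2.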

| SMILES | efficacy |
| --- | --- |
| Cc1cc(C(F)(C(F)(F)F)C(F)(F)F)cc(C)c1-n1cc(-c2cnc(Cl)c(C(=O)N(C)C3(C#N)CC3)c2)cn1 [I-T3-103] | 100% |
| CCc1cc(C(F)(C(F)(F)F)C(F)(F)F)ccc1-n1cc(-c2cnc(Cl)c(C(=O)NC3(C#N)CC3)c2)cn1 [I-T3-105] | 80% |
| Cc1cc(C(F)(C(F)(F)F)C(F)(F)F)cc(C(F)(F)F)c1-n1cc(-c2cnc(Cl)c(C(=O)N(C)C3CC3)c2)cn1 [I-T3-107] | 100% |
| Cc1cc(C(F)(C(F)(F)F)C(F)(F)F)cc(C(F)(F)F)c1-n1cc(-c2cnc(Cl)c(C(=O)N(C)C3(C#N)CC3)c2)cn1 [I-T3-111] | 100% |
